Where two headings read alike, the source gives them in different places.
Format: physicochemical
Conditions: for retention of 2-n-octyl-3-isothiazolone active ingredient after 14 days: 1% solution in 95% propylene glycol/5% water, pH 10.0-10.1 (NaOH), no metal salt stabilizers
Experimental: A 2-n-octyl-3-isothiazolone solution (1%) was prepared in 95% propylene glycol/5% water and the pH was adjusted to 10.0-10.1 with NaOH; no metal salt stabilizers were added to the mixture. Samples of this mixture were then stored at ambient temperature (approximately 25° C.) and also in an oven at 40° C. After 14 days, there was no loss of 2-n-octyl-3-isothiazolone active ingredient (100% retention) for samples stored at either 25° C. or 40° C.

CCCCCCCCn1sccc1=O [2-n-octyl-3-isothiazolone, 2-n-Octyl-3-isothiazolone]
stability at high pH in the absence of amines (in words): stable | retention of 2-n-octyl-3-isothiazolone active ingredient after 14 days (40° C.): 100% | retention of 2-n-octyl-3-isothiazolone active ingredient after 14 days (approx. 25° C.): 100%

Reference: US20030232906A1, “Stabilized coating compositions containing isothiazolone” (priority 2002, published 2003)
